{
  "source": "patent EP2797914B1",
  "about": "“NIFURATEL SULFOXIDE FOR USE IN THE TREATMENT OF BACTERIAL INFECTIONS” (Polichem SA, priority 2011, dated 2013)",
  "key": {"[1]": {"experiment": "Rat pharmacokinetics in plasma, non compartmental analysis", "type": "in vivo, male rats", "conditions": "male rats; for Cmax: read-out: Cmax; for Tmax: read-out: Tmax (converted)", "procedure": "The pharmacokinetic profiles in plasma of nifuratel and nifuratel sulfoxide were tested after intravenous administration (2mg/kg) and oral gavage (15mg/kg) in male rats. […]"}, "[2]": {"tested_on": "Lactobacillus iners ATCC 55195", "experiment": "MIC by broth microdilution method (CLSI M07-A8 / M11-A7)", "type": "cell-based", "conditions": "ATCC55195; broth microdilution; Lactobacillus iners ATCC 55195; read-out: MIC", "procedure": "The in vitro activity of nifuratel sulfoxide racemate, R-nifuratel sulfoxide and S-nifuratel sulfoxide was tested on a panel of bacteria, which included both Gram positive and Gram negative bacteria. The minimum inhibitory concentrations (MICs) of the compounds were determined by the broth microdilution method or by the agar dilution method, according to the National Committee for Clinical Laboratory Standards (CLSI) reference methods […]-A8 and M11-A7."}, "[3]": {"tested_on": "Staphylococcus aureus (MRSA)", "experiment": "MIC by broth microdilution method (CLSI M07-A8 / M11-A7); efficiency coefficient derived", "type": "cell-based", "conditions": "broth microdilution; Staphylococcus aureus (MRSA); read-out: MIC", "procedure": "(§1) The in vitro activity of nifuratel sulfoxide racemate, R-nifuratel sulfoxide and S-nifuratel sulfoxide was tested on a panel of bacteria, which included both Gram positive and Gram negative bacteria.\n(§2) The minimum inhibitory concentrations (MICs) of the compounds were determined by the broth microdilution method or by the agar dilution method, according to the National Committee for Clinical Laboratory Standards (CLSI) reference methods M07-A8 and M11-A7.\n(§3) The efficiency coefficient (EC) of nifuratel sulfoxide vs. nifuratel was calculated for each tested strain as follows: EC = relative oral bioavailability*[…] [formula]\n(§4) Where: • nifS = nifuratel sulfoxide • nif = nifuratel • EC = 1 is indicative of equivalent efficiency between nifuratel sulfoxide and nifuratel. • EC < 1 is indicative of a lower efficiency of nifuratel sulfoxide vs. nifuratel • EC > 1 is indicative of a higher efficiency of nifS vs. nif"}, "[4]": {"tested_on": "Salmonella paratyphi B ATCC 10719", "experiment": "MIC by broth microdilution method (CLSI M07-A8 / M11-A7); efficiency coefficient derived", "type": "cell-based", "conditions": "Salmonella enterica, read-out: MIC", "procedure": "as §1, §2, §3, §4"}, "[5]": {"tested_on": "Neisseria gonorrhoeae ATCC 19424", "experiment": "MIC by broth microdilution method (CLSI M07-A8 / M11-A7); efficiency coefficient derived", "type": "cell-based", "conditions": "ATCC19424; broth microdilution; Neisseria gonorrhoeae ATCC 19424; read-out: MIC", "procedure": "as §1, §2, §3, §4"}, "[6]": {"tested_on": "Micrococcus pyogenes ATCC 11631", "experiment": "MIC by broth microdilution method (CLSI M07-A8 / M11-A7); efficiency coefficient derived", "type": "cell-based", "conditions": "Staphylococcus aureus, ATCC11631; broth microdilution; Micrococcus pyogenes ATCC 11631; read-out: MIC", "procedure": "as §1, §2, §3, §4"}, "[7]": {"tested_on": "Salmonella typhimurium ATCC 14028", "experiment": "MIC by broth microdilution method (CLSI M07-A8 / M11-A7); efficiency coefficient derived", "type": "cell-based", "conditions": "Salmonella enterica; broth microdilution; Salmonella typhimurium ATCC 14028; read-out: MIC", "procedure": "as §1, §2, §3, §4"}, "[8]": {"tested_on": "Klebsiella pneumonia ATCC 10031", "experiment": "MIC by broth microdilution method (CLSI M07-A8 / M11-A7); efficiency coefficient derived", "type": "cell-based", "conditions": "Klebsiella pneumoniae, ATCC10031; broth microdilution; Klebsiella pneumonia ATCC 10031; read-out: MIC", "procedure": "as §1, §2, §3, §4"}, "[9]": {"tested_on": "Shigella sonnei ATCC 11060", "experiment": "MIC by broth microdilution method (CLSI M07-A8 / M11-A7); efficiency coefficient derived", "type": "cell-based", "conditions": "ATCC11060, read-out: MIC", "procedure": "as §1, §2, §3, §4"}, "[10]": {"tested_on": "Escherichia coli ATCC 11775", "experiment": "MIC by broth microdilution method (CLSI M07-A8 / M11-A7); efficiency coefficient derived", "type": "cell-based", "conditions": "ATCC11775; broth microdilution; Escherichia coli ATCC 11775; read-out: MIC", "procedure": "as §1, §2, §3, §4"}, "[11]": {"tested_on": "Proteus mirabilis ATCC 14153", "experiment": "MIC by broth microdilution method (CLSI M07-A8 / M11-A7); efficiency coefficient derived", "type": "cell-based", "conditions": "ATCC14153; broth microdilution; Proteus mirabilis ATCC 14153; read-out: MIC", "procedure": "as §1, §2, §3, §4"}, "Gardnerella vaginalis": {"tested_on": "Gardnerella vaginalis", "experiment": "MIC by agar dilution method (CLSI M07-A8 / M11-A7); efficiency coefficient derived", "type": "cell-based", "conditions": "for MIC: Gardnerella vaginalis, read-out: MIC", "procedure": "as §1, §2, §3, §4"}, "Atopobium vaginae": {"tested_on": "Atopobium vaginae", "experiment": "MIC by agar dilution method (CLSI M07-A8 / M11-A7); efficiency coefficient derived", "type": "cell-based", "conditions": "for MIC: Fannyhessea vaginae, agar dilution, read-out: MIC", "procedure": "as §1, §2, §3, §4"}, "[12]": {"experiment": "Metabolic profiling of nifuratel in human urines by LC/MS/MS after oral administration", "type": "in vivo", "conditions": "two subjects treated orally with nifuratel; attributed by mass spectrometry", "procedure": "As a matter of fact, metabolic profiling of nifuratel, following oral administration, was assessed in human urines by liquid chromatography/tandem mass spectrometry (LC/MS/MS).\nMore in details, urines of two subjects treated orally with nifuratel were collected at the following time-points: pre-dose, 0-4, 4-8, 8-12, 12-24, 24-36 and 36-48 h after treatment.\nNifuratel was not detected in any of the urine samples. […] Based on such a discovery, the applicant has performed both in vitro and in vivo tests in order to establish whether nifuratel sulfoxide is endowed with anti-bacterial activity."}, "[13]": {"conditions": "2mg/kg intravenous administration"}, "[14]": {"conditions": "rat, in vivo, IV (2mg/Kg), plasma, mean"}, "[15]": {"conditions": "rat, in vivo, XOS (15mg/kg), oral gavage, plasma, mean"}},
  "note": "Like-named read-outs stand apart in the source and are kept apart here.",
  "data": [
    {"smiles": "C[S+]([O-])CC1CN(/N=C/c2ccc([N+](=O)[O-])o2)C(=O)O1", "note": "(racemic) [Nifuratel sulfoxide, nifuratel sulfoxide]", "values": [
      {"measurement": "AUC, folds higher than nifuratel", "setting": "[1]; [13]", "value": "over 5 folds"},
      {"measurement": "Cmax, folds higher than nifuratel", "setting": "[1]; [13]", "value": 4, "unit": "folds"},
      {"measurement": "clearance, folds slower with respect to nifuratel", "setting": "[1]; [13]", "value": "over 5 folds"},
      {"measurement": "AUC, folds higher than nifuratel", "setting": "[1]; 15mg/kg oral administration", "value": 30, "unit": "folds"},
      {"measurement": "Cmax, folds higher than nifuratel", "setting": "[1]; 15mg/kg oral administration", "value": 37, "unit": "folds"},
      {"measurement": "increased bioavailability versus nifuratel", "setting": "[1]; 15mg/kg oral administration", "value": 5, "unit": "fold"},
      {"measurement": "T1/7", "setting": "[1]; IV (2mg/Kg), plasma, mean", "value": 15.5, "unit": "min"},
      {"measurement": "Tlast", "setting": "[1]; IV (2mg/Kg), plasma, mean", "value": 120, "unit": "min"},
      {"measurement": "Vss", "setting": "[1]; IV (2mg/Kg), plasma, mean", "value": 0.865, "unit": "kg⁻¹"},
      {"measurement": "Mean Fpo", "setting": "[1]; XOS (15mg/kg), oral gavage", "value": 11, "unit": "%"},
      {"measurement": "Tlast", "setting": "[1]; XOS (15mg/kg), oral gavage, plasma, mean", "value": 240, "unit": "min"},
      {"measurement": "AUC(0-inf)", "setting": "[1]; [14]", "value": 703, "unit": "ng·h/mL"},
      {"measurement": "AUC(0-t)", "setting": "[1]; [14]", "value": 700, "unit": "ng·h/mL"},
      {"measurement": "MRT", "setting": "[1]; [14]", "value": 17.7, "unit": "min"},
      {"measurement": "clearance", "setting": "[1]; [14]", "value": 47.5, "unit": "mL/min/kg"},
      {"measurement": "C0", "setting": "[1]; rat, in vivo, IV (2mg/Kg), plasma, mean, read-out: C0", "value": 2820, "unit": "ng/mL"},
      {"measurement": "concentration at 120 min", "setting": "[1]; rat, in vivo, IV (2mg/Kg), plasma, mean, read-out: Clast", "value": 73, "unit": "ng/mL"},
      {"measurement": "Cmax", "setting": "[1]; [14]", "value": 2220, "unit": "ng/mL"},
      {"measurement": "Tmax", "setting": "[1]; [14]", "value": 2, "unit": "min"},
      {"measurement": "AUC(0-t)", "setting": "[1]; [15]", "value": 605, "unit": "ng·h/mL"},
      {"measurement": "MRT", "setting": "[1]; [15]", "value": 94, "unit": "min"},
      {"measurement": "half-life", "setting": "[1]; [15]", "value": 128, "unit": "min"},
      {"measurement": "concentration at 240 min", "setting": "[1]; rat, in vivo, XOS (15mg/kg), oral gavage, plasma, mean, read-out: Clast", "value": 80.6, "unit": "ng/mL"},
      {"measurement": "Cmax", "setting": "[1]; [15]", "value": 298, "unit": "ng/mL"},
      {"measurement": "Tmax", "setting": "[1]; [15]", "value": 23, "unit": "min"},
      {"measurement": "MIC", "setting": "[2]", "value": 16, "unit": "µg/mL"},
      {"measurement": "MIC", "setting": "[3]", "value": 16, "unit": "µg/mL"},
      {"measurement": "MIC", "setting": "[4]", "value": 8, "unit": "µg/mL"},
      {"measurement": "MIC", "setting": "[5]", "value": 2, "unit": "µg/mL"},
      {"measurement": "MIC", "setting": "[6]", "value": 32, "unit": "µg/mL"},
      {"measurement": "MIC", "setting": "[7]", "value": 32, "unit": "µg/mL"},
      {"measurement": "MIC", "setting": "[8]", "value": 16, "unit": "µg/mL"},
      {"measurement": "MIC", "setting": "[9]", "value": 16, "unit": "µg/mL"},
      {"measurement": "MIC", "setting": "[10]", "value": 16, "unit": "µg/mL"},
      {"measurement": "MIC", "setting": "[11]", "value": 8, "unit": "µg/mL"},
      {"measurement": "MIC", "setting": "Gardnerella vaginalis; ATCC14018, agar dilution, strain ATCC 14018", "value": 8, "unit": "µg/mL"},
      {"measurement": "MIC", "setting": "Gardnerella vaginalis; agar dilution, strain C2", "value": 16, "unit": "µg/mL"},
      {"measurement": "MIC", "setting": "Gardnerella vaginalis; agar dilution, strain D2", "value": 32, "unit": "µg/mL"},
      {"measurement": "MIC", "setting": "Gardnerella vaginalis; agar dilution, strain E2", "value": 32, "unit": "µg/mL"},
      {"measurement": "MIC", "setting": "Gardnerella vaginalis; agar dilution, strain G2", "value": 32, "unit": "µg/mL"},
      {"measurement": "MIC", "setting": "Gardnerella vaginalis; agar dilution, strain H2", "value": 8, "unit": "µg/mL"},
      {"measurement": "MIC", "setting": "Gardnerella vaginalis; agar dilution, strain J2", "value": 32, "unit": "µg/mL"},
      {"measurement": "MIC", "setting": "Gardnerella vaginalis; agar dilution, strain K2", "value": 32, "unit": "µg/mL"},
      {"measurement": "in vitro antimicrobial activity (in words)", "setting": "Gardnerella vaginalis; tested Gardnerella vaginalis strains", "value": "good activity"},
      {"measurement": "MIC", "setting": "Atopobium vaginae; CCUG38953, strain CCUG 38953", "value": 2, "unit": "µg/mL"},
      {"measurement": "MIC", "setting": "Atopobium vaginae; CCUG39382, strain CCUG 39382", "value": 1, "unit": "µg/mL"},
      {"measurement": "MIC", "setting": "Atopobium vaginae; CCUG42099, strain CCUG 42099", "value": 2, "unit": "µg/mL"},
      {"measurement": "MIC", "setting": "Atopobium vaginae; CCUG43049, strain CCUG 43049", "value": 4, "unit": "µg/mL"},
      {"measurement": "MIC", "setting": "Atopobium vaginae; CCUG44061, strain CCUG 44061", "value": 1, "unit": "µg/mL"},
      {"measurement": "MIC", "setting": "Atopobium vaginae; CCUG44156, strain CCUG 44156", "value": 1, "unit": "µg/mL"},
      {"measurement": "MIC", "setting": "Atopobium vaginae; CCUG48515, strain CCUG 48515", "value": 2, "unit": "µg/mL"},
      {"measurement": "MIC", "setting": "Atopobium vaginae; CCUG55226, strain CCUG 55226", "value": 4, "unit": "µg/mL"},
      {"measurement": "MIC", "setting": "Atopobium vaginae; CCUG55227, strain CCUG 55227", "value": 4, "unit": "µg/mL"},
      {"measurement": "in vitro antimicrobial activity (in words)", "setting": "Atopobium vaginae; tested Atopobium vaginae strains", "value": "good activity"},
      {"measurement": "metabolite found in urine", "setting": "[12]", "value": "major metabolite"}
    ]}
  ]
}
